The test relates to CD2F1 mice, L1210 leukemia ip, survival T/C. The experiment in a line: NCI In Vivo Anticancer Drug Screen. Data for tumor model L1210 Leukemia (intraperitoneal) in CD2F1 (CDF1) mice. To be noted: endpoint: mean survival time, higher = longer survival. The method in brief: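 Mice carrying a transplanted tumor received test compound or vehicle alone. The value is the measurement in the treated group divided by that in the vehicle-treated control group.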

The mark [1] stands for this setting: dose: 100.0 mg/kg/injection, schedule: Q01DX001 (ip), vehicle: Klucel (hydroxypropylcellulose) (HPC).
Where [2] appears, read: dose: 200.0 mg/kg/injection, schedule: Q01DX001 (ip), vehicle: Klucel (hydroxypropylcellulose) (HPC).
Setting [3] is: dose: 100.0 mg/kg/injection, schedule: Q01DX001 (ip), vehicle: saline with Tween-80.
The mark [4] stands for this setting: dose: 200.0 mg/kg/injection, schedule: Q01DX001 (ip), vehicle: saline with Tween-80.
Where [5] appears, read: dose: 400.0 mg/kg/injection, schedule: Q01DX001 (ip), vehicle: saline with Tween-80.
The mark [6] stands for this setting: dose: 100.0 mg/kg/injection, schedule: Q01DX009 (ip), vehicle: saline with Tween-80.
Setting [7] is: dose: 200.0 mg/kg/injection, schedule: Q01DX009 (ip), vehicle: saline with Tween-80.

Toxic doses and inconclusive results are not listed.

For the compound `NC(CCl)=NCC1C2CC3CC(C2)CC1C3` (stereo unspecified), the T/C is 96 % of control (dose: 6.25 mg/kg/injection, schedule: Q04DX002 (ip), vehicle: saline); 93 % of control (dose: 12.5 mg/kg/injection, schedule: Q04DX002 (ip), vehicle: saline); 90 % of control (dose: 25.0 mg/kg/injection, schedule: Q04DX002 (ip), vehicle: saline); 96 % of control (dose: 50.0 mg/kg/injection, schedule: Q04DX002 (ip), vehicle: saline); 107 % of control under setting [1]; 98 % of control under setting [2].

Regarding `CSc1nc(N)c(C#N)cc1C#N`, the T/C is 100 % of control under setting [3], 89 % of control under setting [4] and 89 % of control under setting [5].

As for `O=c1n(-c2ccccc2)c(=O)n(-c2ccccc2)c(=O)n1-c1ccccc1`, the T/C is 93 % of control under setting [1]; 90 % of control under setting [2]; 101 % of control (dose: 400.0 mg/kg/injection, schedule: Q01DX001 (ip), vehicle: Klucel (hydroxypropylcellulose) (HPC)).

In the case of `CN(C)CCNCCN(C)C`, the T/C was 100 % of control (dose: 75.0 mg/kg/injection, schedule: Q01DX001 (ip), vehicle: saline); 100 % of control (dose: 150.0 mg/kg/injection, schedule: Q01DX001 (ip), vehicle: saline); 102 % of control (dose: 300.0 mg/kg/injection, schedule: Q01DX001 (ip), vehicle: saline).

In the case of `COC(=O)C(NC=O)C(=O)OC`, the T/C is, setting by setting: (dose: 100.0 mg/kg/injection, schedule: Q01DX009 (ip), vehicle: saline) 105 % of control; (dose: 100.0 mg/kg/injection, schedule: Q04DX003 (ip), vehicle: saline) 93 % of control; (dose: 200.0 mg/kg/injection, schedule: Q01DX009 (ip), vehicle: saline) 107 % of control; (dose: 200.0 mg/kg/injection, schedule: Q04DX003 (ip), vehicle: saline) 101 % of control; (dose: 400.0 mg/kg/injection, schedule: Q01DX009 (ip), vehicle: saline) 117 % of control; (dose: 400.0 mg/kg/injection, schedule: Q04DX003 (ip), vehicle: saline) 95 % of control.

As for `CC1CC=C(/C=N/Nc2ccc([N+](=O)[O-])cc2[N+](=O)[O-])C(C)O1` (stereo unspecified), the T/C under setting [3] is 107 % of control, the T/C under setting [4] is 101 % of control and the T/C under setting [5] is 98 % of control.

As for `O=C(CNC(=O)NCc1ccco1)N/N=C/c1cccc([N+](=O)[O-])c1`, the T/C by setting is: (dose: 50.0 mg/kg/injection, schedule: Q01DX009 (ip), vehicle: saline with Tween-80) 92 % of control; under setting [6], 88 % of control; under setting [7], 103 % of control.

Consider `CC(O)C(O)C=O` (stereo unspecified), for which the T/C (dose: 72.0 mg/kg/injection, schedule: Q03HX008 (ip), vehicle: saline) was 100 % of control; the T/C (dose: 120.0 mg/kg/injection, schedule: Q03HX008 (ip), vehicle: saline) was 97 % of control; the T/C (dose: 200.0 mg/kg/injection, schedule: Q03HX008 (ip), vehicle: saline) was 102 % of control; the T/C (dose: 248.0 mg/kg/injection, schedule: Q01DX009 (ip), vehicle: saline) was 101 % of control; the T/C (dose: 346.0 mg/kg/injection, schedule: Q01DX009 (ip), vehicle: saline) was 104 % of control; the T/C (dose: 576.0 mg/kg/injection, schedule: Q01DX001 (ip), vehicle: saline) was 97 % of control. Further, the T/C reads like this: (dose: 576.0 mg/kg/injection, schedule: Q01DX009 (ip), vehicle: saline) 107 % of control; (dose: 960.0 mg/kg/injection, schedule: Q01DX001 (ip), vehicle: saline) 94 % of control; (dose: 1600.0 mg/kg/injection, schedule: Q01DX001 (ip), vehicle: saline) 102 % of control.

Regarding `O=C(NCCCN1CC1)C(=O)NCCCN1CC1`, the T/C (dose: 3.13 mg/kg/injection, schedule: Q01DX009 (ip), vehicle: saline) was 191 % of control and the T/C (dose: 12.5 mg/kg/injection, schedule: Q01DX009 (ip), vehicle: saline) is 101 % of control.

On to `Cc1ccc(NC(=S)Nc2ccc(C)cc2)cc1`, for which the T/C under setting [6] is 89 % of control; the T/C under setting [7] is 91 % of control; the T/C (dose: 400.0 mg/kg/injection, schedule: Q01DX009 (ip), vehicle: saline with Tween-80) was 93 % of control.

With `NC(=O)c1cn(C2OC(CO)C3OC32)c2ncnc(NC(=O)c3ccccc3)c12` (stereo unspecified), the T/C reads like this: (dose: 25.0 mg/kg/injection, schedule: Q01DX009 (ip), vehicle: distilled water + Tween-80) 90 % of control; (dose: 50.0 mg/kg/injection, schedule: Q01DX009 (ip), vehicle: distilled water + Tween-80) 93 % of control; (dose: 100.0 mg/kg/injection, schedule: Q01DX009 (ip), vehicle: distilled water + Tween-80) 93 % of control; (dose: 200.0 mg/kg/injection, schedule: Q01DX009 (ip), vehicle: distilled water + Tween-80) 97 % of control; (dose: 400.0 mg/kg/injection, schedule: Q01DX009 (ip), vehicle: distilled water + Tween-80) 100 % of control.

For `CCC(/C=N/N=C(N)N)=N\N=C(N)N`, the T/C was 95 % of control (dose: 15.0 mg/kg/injection, schedule: Q01DX010 (ip), vehicle: saline) and 101 % of control (dose: 60.0 mg/kg/injection, schedule: Q01DX010 (ip), vehicle: saline).

In the case of `CN(C)c1ccc(Cc2cc(O)c3c(c2O)C(=O)c2ccccc2C3=O)cc1`, the T/C by setting is: (dose: 100.0 mg/kg/injection, schedule: Q01DX009 (ip), vehicle: saline sonified) 93 % of control; (dose: 200.0 mg/kg/injection, schedule: Q01DX009 (ip), vehicle: saline sonified) 100 % of control; (dose: 400.0 mg/kg/injection, schedule: Q01DX009 (ip), vehicle: saline sonified) 96 % of control.

In the case of `[I][Pt+2][I].[NH-]c1ccc(S(=O)(=O)Nc2ccccn2)cc1.[NH-]c1ccc(S(=O)(=O)Nc2ccccn2)cc1`, the T/C (dose: 20.31 mg/kg/injection, schedule: Q04DX003 (ip), vehicle: saline with Tween-80) was 105 % of control; the T/C (dose: 40.63 mg/kg/injection, schedule: Q04DX003 (ip), vehicle: saline with Tween-80) was 105 % of control; the T/C (dose: 81.25 mg/kg/injection, schedule: Q04DX003 (ip), vehicle: saline with Tween-80) is 90 % of control; the T/C (dose: 162.5 mg/kg/injection, schedule: Q04DX003 (ip), vehicle: saline with Tween-80) was 94 % of control; the T/C (dose: 325.0 mg/kg/injection, schedule: Q04DX003 (ip), vehicle: saline with Tween-80) is 102 % of control.

Consider `NS(=O)(=O)c1cccc(C(=O)O)c1`, for which the T/C under setting [3] was 98 % of control, the T/C under setting [4] is 94 % of control and the T/C under setting [5] is 98 % of control.

Take `CC#CCO`: the T/C is 104 % of control under setting [6] and 98 % of control under setting [7].
